# Assays:
# [1] = Stressed stability of crystalline tezacaftor form B, polymorphic stability by XRPD; assay type: physicochemical; details: 4 weeks
# Description: (§1) Unless otherwise indicated, in the context of the present invention a range of values indicated for a certain parameter, for example the weight of a component in a mixture, includes the upper and the lower limits of the range, e.g. if the content in weight, or in volume, of a component A in a mixture is indicated as “X to Y”, the content of A can be X, Y or any of the intermediate values. By “polymorphically stable” it is meant that the crystalline form B and the amorphous form of the present invention, when stored (I) at 70° C. under reduced pressure for at least 1 hour (preferably for 5 hours, more preferably for 10 hours, even more preferably for 12 hours), (II) at 60° C. for at least 1 day (preferably for 5 days, more preferably for 10 days, even more preferably for 15 days), (III) at 40° C. and 75% RH for at least 1 day (preferably for 5 days, more preferably for 10 days, even more preferably for 15 days), and/or (IV) at 25-30° C. and 80% RH for at least 1 day (preferably for 5 days, more preferably for 10 days, even more preferably for 15 days), show no signs of transformation into a different crystalline tezacaftor (e.g. Form A) as evaluated by the absence of peaks in an X-ray powder diffractogram (XRPD).
# XRPD analyses were performed at 20-30° C. by means of a theta/theta vertical scan Bruker AXS D8 Advance high-performance diffractometer. The instrument was equipped with a Cu-Kα X-ray tube operating at 40 kV/40 mA and generating radiation having λ=1.5418 Å. The detector was a linear Lynxeye XE-T position sensitive set at 250 mm from the sample. Powder samples were deposited in the 20 mm×0.5 mm hollow of the sample holder, consisting of a quartz monocrystal zero background plate. A mild grinding of the sample in an agate mortar may be needed to obtain a suitable fine powder. Diffraction data were collected applying the following conditions: angular range 2-40° 2-theta, 0.02°/step scan and 1 second acquisition time. The instrument calibration was verified by means of a NIST SRM 1976b. […]
# [2] = Stability of amorphous tezacaftor, polymorphic stability by XRPD; assay type: physicochemical
# Description: as §1
# XRPD analyses were performed at 20-30° C. by means of a theta/theta vertical scan Bruker AXS D8 Advance high-performance diffractometer. The instrument was equipped with a Cu-Kα X-ray tube operating at 40 kV/40 mA and generating radiation having λ=1.5418 Å. The detector was a linear Lynxeye XE-T position sensitive set at 250 mm from the sample. Powder samples were deposited in the 20 mm×0.5 mm hollow of the sample holder, consisting of a quartz monocrystal zero background plate. A mild grinding of the sample in an agate mortar may be needed to obtain a suitable fine powder. Diffraction data were collected applying the following conditions: angular range 2-40° 2-theta, 0.02°/step scan and 1 second acquisition time. The instrument calibration was verified by means of a NIST SRM 1976b. Data acquisition was performed by means of Bruker Diffraction Measurement Center software. Data elaboration was performed by means of Crystal Impact Match!.
# The amorphous tezacaftor, prepared as described in Examples 3 to 5, was maintained at 70° C. under a reduced pressure for 12 hours.
# The amorphous tezacaftor, prepared as described in Examples 3 to 5, was maintained, in a closed vial, at 60° C. for 15 days.
# The amorphous tezacaftor, prepared as described in Examples 3 to 5, was maintained, in an open vial, at 40° C. and 75% RH for 15 days.
# The amorphous tezacaftor, prepared as described in Examples 3 to 5, was maintained, in an open vial, at 25-30° C. and 80% RH for 15 days.
SMILES,"XRPD analysis after storage (polymorphic stability) ([1]; 20-25° C., 80% relative humidity, open vial)","XRPD analysis after storage (polymorphic stability) ([1]; 40° C. and 75% RH, open vial)","XRPD analysis after storage (polymorphic stability) ([1]; 60° C., closed vial)","XRPD analysis after storage (polymorphic stability) ([2]; 25-30° C. and 80% RH, open vial, 15 days)","XRPD analysis after storage (polymorphic stability) ([2]; 40° C. and 75% RH, open vial, 15 days)","XRPD analysis after storage (polymorphic stability) ([2]; 60° C., closed vial, 15 days)","XRPD analysis after storage (polymorphic stability) ([2]; 70° C. under reduced pressure, 12 hours)"
"CC(C)(CO)c1cc2cc(NC(=O)C3(c4ccc5c(c4)OC(F)(F)O5)CC3)c(F)cc2n1C[C@@H](O)CO [crystalline tezacaftor, (R)-1-(2,2-difluorobenzo[d][1,3]dioxol-5-yl)-N-(1-(2,3-dihydroxypropyl)-6-fluoro-2-(1-hydroxy-2-methylpropan-2-yl)-1H-indol-5-yl)cyclopropane-1-carboxamide]",XRPD diffractogram corresponding to the one obtained in example 1,XRPD diffractogram corresponding to that obtained in example 1,XRPD diffractogram corresponded to that obtained from the sample of example 1,,,,
"CC(C)(CO)c1cc2cc(NC(=O)C3(c4ccc5c(c4)OC(F)(F)O5)CC3)c(F)cc2n1C[C@@H](O)CO [amorphous tezacaftor, (R)-1-(2,2-difluorobenzo[d][1,3]dioxol-5-yl)-N-(1-(2,3-dihydroxypropyl)-6-fluoro-2-(1-hydroxy-2-methylpropan-2-yl)-1H-indol-5-yl)cyclopropane-1-carboxamide]",,,,XRPD spectrum corresponding to the one obtained in example 3,XRPD spectrum corresponding to the one obtained in example 3,XRPD spectrum corresponding to the one obtained in example 3,XRPD spectrum corresponding to the one obtained in example 3

# Reference: US20230092495A1, “SOLID FORMS OF TEZACAFTOR AND PROCESSES FOR THE PREPARATION THEREOF” (QUÍMICA SINTÉTICA, S.A., priority 2020, published 2023)
